Measurements as given in patent US20100035755A1, “METHOD OF CONTROLLING WEEDS IN A TURF GRASS BY USING SULFONYLUREA COMPOUNDS” (Moghu Research Center Ltd., priority 2008, published 2010).

Columns and labels:
Perennial rye grass = assay: Turf grass selectivity, greenhouse pot test; type: in vivo
Description: (§1) Turf mats of Zoysia grass, bentgrass, Kentucky bluegrass, or perennial rye grass known as cool season turfgrass or western grass were purchased and cut into a piece having 10 cm×20 cm size. Then, each piece was transplanted in a rectangular plastic pot (surface area of 300 cm^2) in which sandy loam and mixed top soil (Boo-Nong Top Soil No. 3, for horticultural use) are filled in 1:1 ratio. After the transplantation, the grasses were cut once a week to maintain the blade height at 0.5-1.0 cm and cultivated for one month in a green house of which temperature was kept at 25˜30° C. for daytime and 15˜25° C. for nighttime, respectively. Then, the ‘test chemical’ of the above Examples 1 and 2 or ‘control chemical’ was applied thereto in an amount of 400, 200, 100, 50, 25, 12, 6, 3 g ai/ha. As a “control chemical”, pyrazolsulfuron ethyl wettable agent (manufactured by Dongbu Fine Chemicals; herein after, referred to as ‘control chemical No. 1’) and flazasulfuron (manufactured by Dongbu HiTek; herein after, referred to as ‘control chemical No. 2’), both sulfonylurea herbicides for a turf grass, were used. Application was carried out by using a track sprayer (R&D Sprayer, USA) equipped with Teejet 8002 nozzle (Spraying Systems Co., USA), and the application amount was adjusted to 2,000 L/ha, which is a typical application amount for a golf course in Korea. Application solution was prepared by diluting the “test chemical” or the “control chemical” with tap water. […] The test was repeated three times in a random arrangement and the results are given in average value of each test (see Table 2 below).

Kentucky bluegrass = assay: Turf grass selectivity, greenhouse pot test; type: in vivo, Poa pratensis
Description: as §1

Cyperus amuricus = assay: Weed spectrum, greenhouse pot test; type: in vivo; details: two weeks after application
Description: (§2) To a rectangular plastic pot (surface area of 300 cm^2) in which sandy loam and mixed top soil (Boo-Nong Top Soil No. 3, for horticultural use) are filled in 1:1 ratio, eight different kinds of weed seeds including Poa annua and Digitaria sanguinalis as poaceae weed, Cyperus amuricus as cyperaceae weeds and Trifolium repens, Kummerowia striata, fleabane, Veronica officinalis and Portulaca oleracea as broadleaf weeds were sewn (50 to 100 seeds per each weed). These weeds are representative examples of the weeds which typically thrive in a turf grass field.
(§3) The pot was kept in a greenhouse which was maintained at 25˜30° C. for daytime and 15˜25° C. for nighttime, respectively, and irrigation was carried out regularly. Fourteen days after seeding, when the turf grass and the weeds reached approximately at three-leaf stage, the weed seeds were again sewn in separate two pots or “Test chemical” and “Control chemical” were applied in the same manner as the method described above. In this regard, when plants were cultivated for two weeks and then the chemical application was carried out, it is designated as “post-emergence” treatment. On the other than, when the seeding was carried right before the chemical application, it is designated as “pre-emergence” treatment. Preparation of a chemical solution, application method, etc. are the same as above described for evaluation of turf grass selectivity. Two weeks after the chemical application, efficacy of the chemicals for each type of the weeds was evaluated (visual evaluation) based on 0 to 100 scale (i.e., 0 indicates no efficacy and 100 indicates complete weed control).

Digitaria sanguinalis = assay: Weed spectrum, greenhouse pot test; type: in vivo; details: two weeks after application
Description: as §2, §3

Kummerowia striata = assay: Weed spectrum, greenhouse pot test; type: in vivo; details: two weeks after application
Description: as §2, §3

Poa annua = assay: Weed spectrum, greenhouse pot test; type: in vivo; details: two weeks after application
Description: as §2, §3

Portulaca oleracea = assay: Weed spectrum, greenhouse pot test; type: in vivo; details: two weeks after application
Description: as §2, §3

Trifolium repens = assay: Weed spectrum, greenhouse pot test; type: in vivo; details: two weeks after application
Description: as §2, §3

Veronica officinalis = assay: Weed spectrum, greenhouse pot test; type: in vivo; details: two weeks after application
Description: as §2, §3

`COc1cc(OC)nc(NC(=O)NS(=O)(=O)c2ncccc2C(F)(F)F)n1` [Control chemical No. 2, Flazasulfuron, reference compound] was tested, and the “phytotoxicity (visual assessment 0-10)” value (Perennial rye grass; 3 g ai/ha, 2 weeks) was 10, the “phytotoxicity (visual assessment 0-10)” value (Perennial rye grass; 3 g ai/ha, 4 weeks) was 10 and the “phytotoxicity (visual assessment 0-10)” value (Perennial rye grass; 6 g ai/ha, 2 weeks) was 10. For the same molecule, the “phytotoxicity (visual assessment 0-10)” value (Perennial rye grass; 6 g ai/ha, 4 weeks) was 10, the “phytotoxicity (visual assessment 0-10)” value (Perennial rye grass; 12 g ai/ha, 2 weeks) was 10 and the “phytotoxicity (visual assessment 0-10)” value (Perennial rye grass; 12 g ai/ha, 4 weeks) was 10. For the same molecule, the “phytotoxicity (visual assessment 0-10)” value (Perennial rye grass; 25 g ai/ha, 2 weeks) was 10, the “phytotoxicity (visual assessment 0-10)” value (Perennial rye grass; 25 g ai/ha, 4 weeks) was 10 and the “phytotoxicity (visual assessment 0-10)” value (Perennial rye grass; 50 g ai/ha, 2 weeks) was 10. For the same molecule, the “phytotoxicity (visual assessment 0-10)” value (Perennial rye grass; 50 g ai/ha, 4 weeks) was 10, the “phytotoxicity (visual assessment 0-10)” value (Perennial rye grass; 100 g ai/ha, 2 weeks) was 10 and the “phytotoxicity (visual assessment 0-10)” value (Perennial rye grass; 100 g ai/ha, 4 weeks) was 10. The “phytotoxicity (visual assessment 0-10)” value (Perennial rye grass; 200 g ai/ha, 2 weeks) was 10, the “phytotoxicity (visual assessment 0-10)” value (Perennial rye grass; 200 g ai/ha, 4 weeks) was 10 and the “phytotoxicity (visual assessment 0-10)” value (Perennial rye grass; 400 g ai/ha, 2 weeks) was 10. For the same molecule, the “phytotoxicity (visual assessment 0-10)” value (Perennial rye grass; 400 g ai/ha, 4 weeks) was 10, the “phytotoxicity (visual assessment 0-10)” value (Kentucky bluegrass; 3 g ai/ha, 2 weeks) was 10 and the “phytotoxicity (visual assessment 0-10)” value (Kentucky bluegrass; 3 g ai/ha, 4 weeks) was 10. The “phytotoxicity (visual assessment 0-10)” value (Kentucky bluegrass; 6 g ai/ha, 2 weeks) was 10, the “phytotoxicity (visual assessment 0-10)” value (Kentucky bluegrass; 6 g ai/ha, 4 weeks) was 10 and the “phytotoxicity (visual assessment 0-10)” value (Kentucky bluegrass; 12 g ai/ha, 2 weeks) was 10. The “phytotoxicity (visual assessment 0-10)” value (Kentucky bluegrass; 12 g ai/ha, 4 weeks) was 10, the “phytotoxicity (visual assessment 0-10)” value (Kentucky bluegrass; 25 g ai/ha, 2 weeks) was 10 and the “phytotoxicity (visual assessment 0-10)” value (Kentucky bluegrass; 25 g ai/ha, 4 weeks) was 10. For the same molecule, the “phytotoxicity (visual assessment 0-10)” value (Kentucky bluegrass; 50 g ai/ha, 2 weeks) was 10, the “phytotoxicity (visual assessment 0-10)” value (Kentucky bluegrass; 50 g ai/ha, 4 weeks) was 10 and the “phytotoxicity (visual assessment 0-10)” value (Kentucky bluegrass; 100 g ai/ha, 2 weeks) was 10. The “phytotoxicity (visual assessment 0-10)” value (Kentucky bluegrass; 100 g ai/ha, 4 weeks) was 10, the “phytotoxicity (visual assessment 0-10)” value (Kentucky bluegrass; 200 g ai/ha, 2 weeks) was 10 and the “phytotoxicity (visual assessment 0-10)” value (Kentucky bluegrass; 200 g ai/ha, 4 weeks) was 10. For the same molecule, the “phytotoxicity (visual assessment 0-10)” value (Kentucky bluegrass; 400 g ai/ha, 2 weeks) was 10, the “phytotoxicity (visual assessment 0-10)” value (Kentucky bluegrass; 400 g ai/ha, 4 weeks) was 10 and the “efficacy (0-100 scale)” value (Cyperus amuricus; Post-emergence, 12 g ai/ha) was 60. The “efficacy (0-100 scale)” value (Cyperus amuricus; Post-emergence, 25 g ai/ha) was 70, the “efficacy (0-100 scale)” value (Cyperus amuricus; Post-emergence, 50 g ai/ha) was 80 and the “efficacy (0-100 scale)” value (Cyperus amuricus; Post-emergence, 100 g ai/ha) was 80. The “efficacy (0-100 scale)” value (Cyperus amuricus; Pre-emergence, 12 g ai/ha) was 40, the “efficacy (0-100 scale)” value (Cyperus amuricus; Pre-emergence, 25 g ai/ha) was 70 and the “efficacy (0-100 scale)” value (Cyperus amuricus; Pre-emergence, 50 g ai/ha) was 80. For the same molecule, the “efficacy (0-100 scale)” value (Cyperus amuricus; Pre-emergence, 100 g ai/ha) was 100, the “efficacy (0-100 scale)” value (Digitaria sanguinalis; Post-emergence, 12 g ai/ha) was 50 and the “efficacy (0-100 scale)” value (Digitaria sanguinalis; Post-emergence, 25 g ai/ha) was 70. For the same molecule, the “efficacy (0-100 scale)” value (Digitaria sanguinalis; Post-emergence, 50 g ai/ha) was 80, the “efficacy (0-100 scale)” value (Digitaria sanguinalis; Post-emergence, 100 g ai/ha) was 80 and the “efficacy (0-100 scale)” value (Digitaria sanguinalis; Pre-emergence, 12 g ai/ha) was 60. The “efficacy (0-100 scale)” value (Digitaria sanguinalis; Pre-emergence, 25 g ai/ha) was 70, the “efficacy (0-100 scale)” value (Digitaria sanguinalis; Pre-emergence, 50 g ai/ha) was 90 and the “efficacy (0-100 scale)” value (Digitaria sanguinalis; Pre-emergence, 100 g ai/ha) was 100. For the same molecule, the “efficacy (0-100 scale)” value (Kummerowia striata; Post-emergence, 12 g ai/ha) was 80, the “efficacy (0-100 scale)” value (Kummerowia striata; Post-emergence, 25 g ai/ha) was 90 and the “efficacy (0-100 scale)” value (Kummerowia striata; Post-emergence, 50 g ai/ha) was 100. For the same molecule, the “efficacy (0-100 scale)” value (Kummerowia striata; Post-emergence, 100 g ai/ha) was 100, the “efficacy (0-100 scale)” value (Kummerowia striata; Pre-emergence, 12 g ai/ha) was 80 and the “efficacy (0-100 scale)” value (Kummerowia striata; Pre-emergence, 25 g ai/ha) was 90. The “efficacy (0-100 scale)” value (Kummerowia striata; Pre-emergence, 50 g ai/ha) was 100, the “efficacy (0-100 scale)” value (Kummerowia striata; Pre-emergence, 100 g ai/ha) was 100 and the “efficacy (0-100 scale)” value (Poa annua; Post-emergence, 12 g ai/ha) was 40. The “efficacy (0-100 scale)” value (Poa annua; Post-emergence, 25 g ai/ha) was 70, the “efficacy (0-100 scale)” value (Poa annua; Post-emergence, 50 g ai/ha) was 80 and the “efficacy (0-100 scale)” value (Poa annua; Post-emergence, 100 g ai/ha) was 90. For the same molecule, the “efficacy (0-100 scale)” value (Poa annua; Pre-emergence, 12 g ai/ha) was 40, the “efficacy (0-100 scale)” value (Poa annua; Pre-emergence, 25 g ai/ha) was 70 and the “efficacy (0-100 scale)” value (Poa annua; Pre-emergence, 50 g ai/ha) was 100. The “efficacy (0-100 scale)” value (Poa annua; Pre-emergence, 100 g ai/ha) was 100, the “efficacy (0-100 scale)” value (Portulaca oleracea; Post-emergence, 12 g ai/ha) was 80 and the “efficacy (0-100 scale)” value (Portulaca oleracea; Post-emergence, 25 g ai/ha) was 90. The “efficacy (0-100 scale)” value (Portulaca oleracea; Post-emergence, 50 g ai/ha) was 90, the “efficacy (0-100 scale)” value (Portulaca oleracea; Post-emergence, 100 g ai/ha) was 100 and the “efficacy (0-100 scale)” value (Portulaca oleracea; Pre-emergence, 12 g ai/ha) was 40. For the same molecule, the “efficacy (0-100 scale)” value (Portulaca oleracea; Pre-emergence, 25 g ai/ha) was 60, the “efficacy (0-100 scale)” value (Portulaca oleracea; Pre-emergence, 50 g ai/ha) was 90 and the “efficacy (0-100 scale)” value (Portulaca oleracea; Pre-emergence, 100 g ai/ha) was 100. For the same molecule, the “efficacy (0-100 scale)” value (Trifolium repens; Post-emergence, 12 g ai/ha) was 80, the “efficacy (0-100 scale)” value (Trifolium repens; Post-emergence, 25 g ai/ha) was 100 and the “efficacy (0-100 scale)” value (Trifolium repens; Post-emergence, 50 g ai/ha) was 100. For the same molecule, the “efficacy (0-100 scale)” value (Trifolium repens; Post-emergence, 100 g ai/ha) was 100, the “efficacy (0-100 scale)” value (Trifolium repens; Pre-emergence, 12 g ai/ha) was 70 and the “efficacy (0-100 scale)” value (Trifolium repens; Pre-emergence, 25 g ai/ha) was 80. The “efficacy (0-100 scale)” value (Trifolium repens; Pre-emergence, 50 g ai/ha) was 100, the “efficacy (0-100 scale)” value (Trifolium repens; Pre-emergence, 100 g ai/ha) was 100 and the “efficacy (0-100 scale)” value (Veronica officinalis; Post-emergence, 12 g ai/ha) was 10. For the same molecule, the “efficacy (0-100 scale)” value (Veronica officinalis; Post-emergence, 25 g ai/ha) was 20, the “efficacy (0-100 scale)” value (Veronica officinalis; Post-emergence, 50 g ai/ha) was 30 and the “efficacy (0-100 scale)” value (Veronica officinalis; Post-emergence, 100 g ai/ha) was 40. For the same molecule, the “efficacy (0-100 scale)” value (Veronica officinalis; Pre-emergence, 12 g ai/ha) was 20, the “efficacy (0-100 scale)” value (Veronica officinalis; Pre-emergence, 25 g ai/ha) was 30 and the “efficacy (0-100 scale)” value (Veronica officinalis; Pre-emergence, 50 g ai/ha) was 50. For the same molecule, the “efficacy (0-100 scale)” value (Veronica officinalis; Pre-emergence, 100 g ai/ha) was 60.
